# Laboratory results published in patent US8765779B2, “Tricyclic derivatives and their pharmaceutical use and compositions” (Cephalon, Inc., priority 2009, dated 2014).
# pKi: −log10 of the molar value. Counter-ions that a name gives are not always drawn.
# Molecular target: T1, human 5-HT6 receptor (Homo sapiens, UniProt P50406)
# T1 construct: host or cells: CHO-K1 cells, stably transfected; membranes prepared in house
# Test: Human 5-HT6 Receptor Binding Assay ([3H]LSD displacement, scintillation beads)
# Details: membranes of CHO-K1 cells with recombinant human 5-HT6, 4 nM [3H]LSD; Table 1, class symbols; read-out: h5-HT6 (Ki)
# T1 sequence (P50406 whole entry): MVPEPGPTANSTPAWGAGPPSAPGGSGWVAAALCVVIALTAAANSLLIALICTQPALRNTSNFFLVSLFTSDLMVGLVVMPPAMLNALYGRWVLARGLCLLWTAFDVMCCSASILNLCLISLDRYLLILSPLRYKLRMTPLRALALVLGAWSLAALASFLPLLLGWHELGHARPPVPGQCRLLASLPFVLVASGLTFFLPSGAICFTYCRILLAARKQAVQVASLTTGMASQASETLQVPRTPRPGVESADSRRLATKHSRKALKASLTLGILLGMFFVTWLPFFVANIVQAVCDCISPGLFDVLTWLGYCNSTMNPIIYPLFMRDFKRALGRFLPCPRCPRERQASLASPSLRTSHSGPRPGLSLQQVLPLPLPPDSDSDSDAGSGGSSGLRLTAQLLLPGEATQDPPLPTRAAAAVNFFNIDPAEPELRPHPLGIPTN
row,pKi,Structure (SMILES)
1,> 6.30,"[O-][S+](c1cccc(OC(F)(F)F)c1)c1ccc2c3c(oc2c1)C1(CCOCC1)NCC3 (stereo not drawn) [Example 299, 7-{[3-(trifluoromethoxy)phenyl]sulfi-nyl}-2′,3,3′,4,5′,6′-hexahydro-2H-spiro[1-benzofuro[2,3-c]pyridine-1,4′-pyran]]"
2,> 6.30,O=S(=O)(Oc1ccc2c(c1)C1CCNCC1O2)c1csc2ccccc12 (stereo not drawn) [Example 726]
3,> 6.30,COc1cccc(S(=O)(=O)c2ccc3c(c2)C2CCNCC2O3)c1 (stereo not drawn) [Example 178]
4,< 6.00,O=S(=O)(c1ccc2c(c1)OC1CNCCC21)c1cccc2c1OCCO2 (stereo not drawn) [Example 462]
5,< 6.00,O=S(=O)(Nc1cccc(F)c1F)c1ccc2c(c1)C1CCNCC1O2 (stereo not drawn) [Example 842]
6,> 6.30,Cc1cc(C)c(S(=O)(=O)Oc2ccc3c(c2)C2CCNCC2O3)c(C)c1 (stereo not drawn) [Example 715]
7,6.00 to 6.30,COC(=O)c1cccc(S(=O)(=O)c2ccc3oc4c(c3c2)CCNC4)c1 [Example 269]
8,> 6.30,O=S(=O)(c1ccc(F)c(Cl)c1)c1ccc2oc3c(c2c1)CCNC3 [Example 258]
9,> 6.30,O=S(=O)(c1ccc2c(c1)OC1CNCCC21)c1ccccc1F (stereo not drawn) [Example 146]
10,> 6.30,Cc1ccc(F)cc1S(=O)(=O)c1ccc2c(c1)OC1CNCCC21 (stereo not drawn) [Example 130]
11,> 6.30,O=S(=O)(c1ccc2ccccc2c1)c1cccc2c1OC1CNCCC21 (stereo not drawn) [Example 189]
12,< 6.00,"O=S(=O)(Nc1ccc2c(c1)C1CCNCC1O2)c1ccccc1 (stereo not drawn) [Example 817, N-(1,2,3,4,4a,9a-Hexahydro[1]benzofuro[2,3-c]pyridin-6-yl)benzenesulfonamide]"
13,> 6.30,COC(=O)CCCCOc1cccc(S(=O)(=O)c2ccc3c(c2)OC2CNCCC32)c1 (stereo not drawn) [Example 556]
14,> 6.30,O=S(=O)(Oc1ccc2c(c1)C1CCNCC1O2)c1ccc(Cl)c(Cl)c1 (stereo not drawn) [Example 738]
15,> 6.30,O=S(=O)(c1cccc(C(F)(F)F)c1)c1ccc2c(c1)OC1CNCCC21 (stereo not drawn) [Example 126]
16,6.00 to 6.30,O=S(=O)(c1ccc2c(c1)C1CCNCC1O2)N1CCc2ccccc21 (stereo not drawn) [Example 838]
17,6.00 to 6.30,"CC1(C)NCCc2c1oc1ccc(S(=O)(=O)c3cccc(F)c3)cc21 [Example 42, 6-[(3-fluorophenyl)sulfonyl]-1,1-dimethyl-1,2,3,4-tetrahydro[1]benzofuro[2,3-c]pyridine]"
18,> 6.30,"CN(C)C(=O)CC1(C)NCCc2c1oc1cc(S(=O)(=O)c3cccc(F)c3)ccc21 (single isomer, unassigned) [Example 50, 2-{7-[(3-fluorophenyl)sulfonyl]-1-methyl-1,2,3,4-tetrahydro[1]benzofuro[2,3-c]pyridin-1-yl}-N,N-dimethylacetamide]"
19,< 6.00,O=S(=O)(Nc1cccc2ccccc12)c1ccc2c(c1)C1CCNCC1O2 (stereo not drawn) [Example 837]
20,6.00 to 6.30,COc1ccc(S(=O)(=O)c2ccc3c(c2)OC2CNCCC32)cc1 (stereo not drawn) [Example 325]
21,< 6.00,O=S(=O)(c1ccc(Cl)cc1)c1ccc2c(c1)C1CCNCC1O2 (stereo not drawn) [Example 335]

row,pKi,Structure (SMILES)
1,> 6.30,"[O-][S+](c1cccc(F)c1)c1ccc2c(c1)OC1CNCCC21 (stereo not drawn) [Example 625, 7-[(3-Fluorophenyl)sulfinyl]-1,2,3,4,4a,9a-hexahydro[1]benzofuro[2,3-c]pyridine trifluoroacetic acid salt]"
2,> 6.30,COc1cc(OCC2CCOCC2)cc(S(=O)(=O)c2ccc3c(c2)OC2CNCCC32)c1 (stereo not drawn) [Example 584]
3,> 6.30,O=S(=O)(c1ccc2c(c1)OC1CNCCC21)c1cccc(Cl)c1F (stereo not drawn) [Example 409]
4,> 6.30,COc1ccc(S(=O)(=O)c2ccc3c4c(oc3c2)C(C)NCC4)cc1F (stereo not drawn) [Example 236]
5,> 6.30,"O=S(=O)(c1ccc(Cl)c(Cl)c1)c1ccc2c3c(oc2c1)CNCC3 [Example 197, 7-[(3,4-dichlorophenyl)sulfonyl]-1,2,3,4-tetrahydro[1]benzofuro[2,3-c]pyridine]"
6,< 6.00,COC(=O)c1cc(Cl)cc(S(=O)(=O)c2ccc3c(c2)OC2CNCCC32)c1 (stereo not drawn) [Example 387]
7,> 6.30,"CC1OCCC12NCCc1c2oc2cc(S(=O)(=O)c3cccc(F)c3)ccc12 (single isomer, unassigned) [Example 57, 7-[(3-Fluorophenyl)sulfonyl]-2′-methyl-3,4,4′,5′-tetrahydro-2H-spiro[1-benzofuro[2,3-c]pyridine-1,3′-furan]]"
8,> 6.30,"O=S(=O)(c1cccc(F)c1)c1ccc2c3c(oc2c1)C1(CCOC1)NCC3 (racemic) [Example 30, 7-[(3-fluorophenyl)sulfonyl]-3,4,4′,5′-tetrahydro-2H-spiro[1-benzofuro[2,3-c]pyridine-1,3′-furan]]"
9,< 6.00,[O-][S+](c1ccc2oc3c(c2c1)CCNC3)c1cccnc1OCC(F)(F)F (stereo not drawn) [Example 447]
10,> 6.30,"O=S(=O)(c1ccc(OC(F)(F)F)cc1)c1ccc2c3c(oc2c1)CNCC3 [Example 227, 7-{[4-(trifluoromethoxy)phenyl]sulfo-nyl}-1,2,3,4-tetrahydro[1]benzofuro[2,3-c]pyridine]"
11,> 6.30,CC(C)C1NCCc2c1oc1cc(S(=O)(=O)c3cccc(Cl)c3)ccc21 (stereo not drawn) [Example 505]
12,> 6.30,"CC1OCCC12NCCc1c2oc2cc(S(=O)(=O)c3cccc(F)c3)ccc12 (single isomer, unassigned) [Example 61, 7-[(3-Fluorophenyl)sulfonyl]-2′-methyl-3,4,4′,5′-tetrahydro-2H-spiro[1-benzofuro[2,3-c]pyridine-1,3′-furan]]"
13,> 6.30,O=S(=O)(c1cccc(F)c1)c1ccc2oc3c(c2c1)CCNC3C1CCOC1 (stereo not drawn) [Example 516]
14,> 6.30,O=S(=O)(Oc1ccc2c(c1)C1CCNCC1O2)c1cc2ccccc2o1 (stereo not drawn) [Example 714]
15,> 6.30,O=S(=O)(c1cccc(Cl)c1)c1ccc2c(c1)OC1CNCCC21 (stereo not drawn) [Example 112]
16,> 6.30,O=S(=O)(Oc1ccc2c(c1)OC1CNCCC21)c1c(Cl)nc2sccn12 (stereo not drawn) [Example 793]
17,> 6.30,O=S(=O)(c1ccc(Cl)c(C(F)(F)F)c1)c1ccc2oc3c(c2c1)CCNC3 [Example 257]
18,> 6.30,O=S(=O)(c1cccc(C(F)(F)F)c1)c1ccc2c3c(oc2c1)C1(CCOC1)NCC3 (stereo not drawn) [Example 304]
19,> 6.30,O=S(=O)(c1ccc2oc3c(c2c1)CCNC3)c1ccccc1F [Example 277]
20,> 6.30,O=S(=O)(c1ccc2c3c(oc2c1)CNCC3)c1cc(F)ccc1F [Example 223]
21,> 6.30,"CC(=O)NCCC1NCCc2c1oc1cc(S(=O)(=O)c3cccc(Cl)c3)ccc21 (racemic) [Example 540, N-(2-{7-[(3-chlorophenyl)sulfonyl]-1,2,3,4-tetrahydro[1]benzofuro[2,3-c]pyridin-1-yl}ethyl)acetamide]"

row,pKi,Structure (SMILES)
1,< 6.00,O=S(=O)(Oc1ccc2c(c1)C1CCNCC1O2)c1ccc(Cl)cc1 (stereo not drawn) [Example 695]
2,> 6.30,"O=S(=O)(c1cccc(Cl)c1)c1ccc2c3c(oc2c1)CNCC3 [Example 340, 7-[(3-chlorophenyl)sulfonyl]-1,2,3,4-tetrahydro[1]benzofuro[2,3-c]pyridine]"
3,> 6.30,O=S(=O)(c1cccc(F)c1)c1ccc2oc3c(c2c1)CCNC3C1CC1 (stereo not drawn) [Example 517]
4,> 6.30,COC(=O)c1cccc(S(=O)(=O)c2ccc3c4c(oc3c2)CNCC4)c1 [Example 219]
5,> 6.30,[O-][S+](c1ccc2c(c1)OC1CNCCC21)c1cccc(F)c1F (stereo not drawn) [Example 384]
6,> 6.30,O=S(=O)(c1ccc2c(c1)OC1CNCCC21)c1ccccc1-c1ccccc1 (stereo not drawn) [Example 152]
7,< 6.00,O=S(=O)(Cc1ccccc1Cl)Oc1ccc2c(c1)C1CCNCC1O2 (stereo not drawn) [Example 754]
8,> 6.30,O=S(=O)(Oc1ccc2c(c1)C1CCNCC1O2)c1csc2ccccc12 (stereo not drawn) [Example 725]
9,< 6.00,CC(=O)Nc1ccc(S(=O)(=O)Oc2ccc3c(c2)C2CCNCC2O3)cc1 (stereo not drawn) [Example 728]
10,> 6.30,O=S(=O)(Oc1ccc2c(c1)OC1CNCCC21)c1cc2ccccc2s1 (stereo not drawn) [Example 664]
11,> 6.30,CC(C)c1ccc(S(=O)(=O)Oc2ccc3c(c2)OC2CNCCC32)cc1 (stereo not drawn) [Example 657]
12,> 6.30,O=S(=O)(Oc1ccc2c(c1)OC1CNCCC21)c1ccc(F)c(Cl)c1 (stereo not drawn) [Example 663]
13,6.00 to 6.30,O=S(=O)(c1ccc2c(c1)OC1CNCCC21)c1cccc2c1CCO2 (stereo not drawn) [Example 405]
14,> 6.30,COc1cc(OC(C)C)cc(S(=O)(=O)c2ccc3c(c2)OC2CNCCC32)c1 (stereo not drawn) [Example 77]
15,> 6.30,"CC(C)Oc1cccc(S(=O)(=O)c2ccc3c4c(oc3c2)C2(CCC2)NCC4)c1 [Example 26, 7-{[3-(propan-2-yloxy)phenyl]sulfonyl}-3,4-dihydro-2H-spiro[1-benzofuro[2,3-c]pyridine-1,1′-cyclobutane]]"
16,> 6.30,O=S(=O)(Nc1ccc2c(c1)C1CCNCC1O2)c1ccc2ccccc2c1 (stereo not drawn) [Example 819]
17,> 6.30,O=S(=O)(c1ccc(Oc2ccccc2)cc1)c1ccc2oc3c(c2c1)CCNC3 [Example 248]
18,< 6.00,O=S(=O)(c1ccc2c(c1)C1CCNCC1O2)N1CCN(c2ccccc2)CC1 (stereo not drawn) [Example 845]
19,> 6.30,O=S(=O)(c1ccccc1)c1ccc2c(c1)OC1CN(C3CCCC3)CCC21 (stereo not drawn) [Example 609]
20,> 6.30,O=S(=O)(c1ccc2c(c1)OC1CNCCC21)c1ccccc1Cl (stereo not drawn) [Example 113]

row,Structure (SMILES),pKi
1,CC(C)COc1cc(F)cc(S(=O)(=O)c2ccc3c(c2)OC2CNCCC32C)c1 (stereo not drawn) [Example 424],> 6.30
2,CC12CCNCC1Oc1cc(S(=O)(=O)c3cc[nH]c(=O)c3)ccc12 (stereo not drawn) [Example 428],< 6.00
3,CC12CCNCC1Oc1cc(S(=O)(=O)c3cc(F)cc(F)c3)ccc12 (stereo not drawn) [Example 359],> 6.30
4,CC12CCNCC1Oc1ccc(OS(=O)(=O)c3ccc4c(c3)OCCO4)cc12 (stereo not drawn) [Example 775],> 6.30
5,CC12CCN(C3CCC3)CC1Oc1ccc(OS(=O)(=O)Cc3ccccc3)cc12 (stereo not drawn) [Example 805],< 6.00
6,"CCN1CCC2(C)c3cc(OS(=O)(=O)Cc4ccccc4)ccc3OC2C1 (stereo not drawn) [Example 810, 2-Ethyl-4a-methyl-1,2,3,4,4a,9a-hexahydro[1]benzofuro[2,3-c]pyridin-6-yl phenylmethanesulfonate]",< 6.00
7,COc1cc(OC)cc(S(=O)(=O)c2ccc3c(c2)OC2CNCCC32C)c1 (stereo not drawn) [Example 490],> 6.30
